Results: patent US9617256B2 (priority 2007, dated 2017)
In brackets after ≈: the same amount, converted by molar mass. Where two headings read alike, the source gives them in different places.

Tests used:
[1] = test system: APAE006 in the presence of 8 micrograms per milliliter of polymyxin B nonapeptide; type: cell-based, P. aeruginosa; conditions: APAE006 with 8 micrograms per milliliter polymyxin B nonapeptide
Procedure, shortened: (§1)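 For the efflux-deficient P. aeruginosa APAE006, one set of MICs includes polymyxin B nonapeptide at 8 micrograms per milliliter.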

[2] = test system: APAE006 (strain of P. aeruginosa in which all efflux pumps are inactivated); test: microbe, parasite or virus in culture; type: cell-based; conditions: Pseudomonas aeruginosa, read-out: MIC APAE006, APAE006, all efflux pumps inactivated
Procedure, shortened: as §1

APAE001 (ATCC27853) = test: MIC broth microdilution, APAE001; type: cell-based, P. aeruginosa; conditions: Pseudomonas aeruginosa, ATCC27853, read-out: MIC APAE001, APAE001 (ATCC27853)
Procedure, shortened: (§2)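 Inocula prepared from 0.5 McFarland suspensions (final 3×10^5–7×10^5 CFU/mL) were added to 2-fold drug dilution series in cation-adjusted Mueller-Hinton broth. Plates stood 18-24 hours at 35° C. under ambient air.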

AECO001 (ATCC25922) = test: MIC broth microdilution, AECO001; type: cell-based, E. coli; conditions: for MIC: Escherichia coli
Procedure, shortened: as §2

[3] = test system: ASAU001 (laboratory strain of S. aureus, ATCC29213); test: MIC broth microdilution, ASAU001; type: cell-based; conditions: Staphylococcus aureus, ATCC29213, read-out: MIC ASAU001
Procedure, shortened: as §2

[4] = test system: AABA1060 (clinical isolate of Acinetobacter baumannii); test: MIC broth microdilution, AABA1060; type: cell-based; conditions: Acinetobacter baumannii, read-out: MIC AABA1060
Procedure, shortened: as §2

[5] = test system: AECO063 (ATCC25922 bearing an acrAB mutation); test: microbe, parasite or virus in culture; type: cell-based, E. coli; conditions: Escherichia coli, ATCC25922, read-out: MIC AECO063
Procedure, shortened: as §2

[6] = ATCC25922, read-out: MIC AECO001
[7] = ATCC25922, read-out: MIC AECO001 HSA AGP

Structure (SMILES)	MIC APAE006 + PMBN [1]	MIC [2] [µg/mL]	MIC (APAE001 (ATCC27853)) [µg/mL]	MIC (AECO001 (ATCC25922); [6]) [µg/mL]	MIC (AECO001 (ATCC25922); [7]) [µg/mL]	MIC [3] [µg/mL]	MIC [4] [µg/mL]	MIC [5] [µg/mL]	Ratio of MICs on AECO001 [Cpd (A = —CHCH3NH2)/Cpd (A = —C(CH3)2NH2)] (AECO001 (ATCC25922); MIC of paired compound with A = —CHCH3NH2 divided by MIC of compound with A = —C(CH3)2NH2, n=2 data, pairs identical except for the A moiety)
C[C@@H](N)[C@H](NC(=O)c1ccc(C#Cc2ccc(COC3CC3)cc2)cc1)C(=O)NO [Example 123-1, N-((1S,2R)-2-Amino-1-hydroxycarbamoyl-propyl)-4-(4-cyclopropoxymethyl-phenylethynyl)-benzamide]	A (MIC's of 2.0 μg/mL or less = A)	< 2	2 to 16 (≈ 4.91 to 39.3 µM)	< 2	2 to 16 (≈ 4.91 to 39.3 µM)	16 to 64 (≈ 39.3 to 157 µM)	2 to 16 (≈ 4.91 to 39.3 µM)	< 2	–
C[C@@H](N)[C@H](NC(=O)c1ccc(C#Cc2ccc(COCC(F)(F)F)cc2)cc1)C(=O)NO [Example 124-1, N-((1S,2R)-2-Amino-1-hydroxycarbamoyl-propyl)-4-[4-(2,2,2-trifluoro-ethoxymethyl)-phenylethynyl]-benzamide]	A (MIC's of 2.0 μg/mL or less = A)	< 2	2 to 16 (≈ 4.45 to 35.6 µM)	< 2	2 to 16 (≈ 4.45 to 35.6 µM)	16 to 64 (≈ 35.6 to 142 µM)	16 to 64 (≈ 35.6 to 142 µM)	< 2	–
CC(C)OCc1ccc(C#Cc2ccc(C(=O)N[C@H](C(=O)NO)[C@@H](C)N)cc2)cc1 [Example 124-2]	A (MIC's of 2.0 μg/mL or less = A)	< 2	2 to 16 (≈ 4.88 to 39.1 µM)	< 2	2 to 16 (≈ 4.88 to 39.1 µM)	16 to 64 (≈ 39.1 to 156 µM)	2 to 16 (≈ 4.88 to 39.1 µM)	< 2	–
C[C@@H](N)[C@H](NC(=O)c1ccc(C#Cc2ccc(OC3CC3)cc2)cc1)C(=O)NO [Example 125-1, N-((1S,2R)-2-Amino-1-hydroxycarbamoyl-propyl)-4-(4-cyclopropoxy-phenylethynyl)-benzamide]	A (MIC's of 2.0 μg/mL or less = A)	< 2	2 to 16 (≈ 5.08 to 40.7 µM)	< 2	2 to 16 (≈ 5.08 to 40.7 µM)	16 to 64 (≈ 40.7 to 163 µM)	< 2	< 2	–
CCOCc1ccc(C#Cc2ccc(C(=O)N[C@H](C(=O)NO)C(C)(C)N)cc2)cc1 [Example 126-1, N—((S)-2-Amino-1-hydroxycarbamoyl-2-methyl-propyl)-4-(4-ethoxymethyl-phenylethynyl)-benzamide]	A (MIC's of 2.0 μg/mL or less = A)	< 2	< 2	< 2	< 2	16 to 64 (≈ 39.1 to 156 µM)	< 2	< 2	–
C[C@@H](N)[C@H](NC(=O)c1ccc(C#Cc2ccc(NC(=O)CNC3CC3)cc2)cc1)C(=O)NO [Example 130-1, N-((1S,2R)-2-Amino-1-hydroxycarbamoyl-propyl)-4-[4-(2-cyclopropylamino-acetylamino)-phenylethynyl]-benzamide]	A (MIC's of 2.0 μg/mL or less = A)	< 2	< 2	2 to 16 (≈ 4.45 to 35.6 µM)	16 to 64 (≈ 35.6 to 142 µM)	16 to 64 (≈ 35.6 to 142 µM)	2 to 16 (≈ 4.45 to 35.6 µM)	< 2	–
O=C(CNC1CC1)NC[C@H](NC(=O)c1ccc(C#Cc2ccccc2)cc1)C(=O)NO [Example 132-1, N—[(S)-2-(2-Cyclopropylamino-acetylamino)-1-hydroxycarbamoyl-ethyl]-4-phenylethynyl-benzamide]	A (MIC's of 2.0 μg/mL or less = A)	< 2	2 to 16 (≈ 4.76 to 38.1 µM)	< 2	2 to 16 (≈ 4.76 to 38.1 µM)	16 to 64 (≈ 38.1 to 152 µM)	2 to 16 (≈ 4.76 to 38.1 µM)	< 2	–
C[C@@H](NC(=O)CNC1CC1)[C@H](NC(=O)c1ccc(C#Cc2ccccc2)cc1)C(=O)NO [Example 132-2]	A (MIC's of 2.0 μg/mL or less = A)	< 2	2 to 16 (≈ 4.6 to 36.8 µM)	< 2	2 to 16 (≈ 4.6 to 36.8 µM)	16 to 64 (≈ 36.8 to 147 µM)	16 to 64 (≈ 36.8 to 147 µM)	< 2	–
C[C@@H](NCC(=O)NC[C@H](NC(=O)c1ccc(C#Cc2ccccc2)cc1)C(=O)NO)c1ccccc1 [Example 132-3]	A (MIC's of 2.0 μg/mL or less = A)	< 2	16 to 64 (≈ 33 to 132 µM)	< 2	2 to 16 (≈ 4.13 to 33 µM)	16 to 64 (≈ 33 to 132 µM)	2 to 16 (≈ 4.13 to 33 µM)	< 2	–
C[C@@H](NCC(=O)N[C@H](C)[C@H](NC(=O)c1ccc(C#Cc2ccccc2)cc1)C(=O)NO)c1ccccc1 [Example 132-6]	A (MIC's of 2.0 μg/mL or less = A)	< 2	16 to 64 (≈ 32.1 to 128 µM)	2 to 16 (≈ 4.01 to 32.1 µM)	16 to 64 (≈ 32.1 to 128 µM)	16 to 64 (≈ 32.1 to 128 µM)	16 to 64 (≈ 32.1 to 128 µM)	< 2	–
CC(C)(N)[C@H](NC(=O)c1ccc(C#Cc2ccccc2)cc1)C(=O)NO [Example 133-6]	A (MIC's of 2.0 μg/mL or less = A)	< 2	< 2	< 2	< 2	2 to 16 (≈ 5.69 to 45.5 µM)	< 2	< 2	20.8
C[C@@H](O)[C@H](NC(=O)c1ccc(C#Cc2ccncc2)cc1)C(=O)NO [Example 133-13]	A (MIC's of 2.0 μg/mL or less = A)	< 2	16 to 64 (≈ 47.1 to 189 µM)	16 to 64 (≈ 47.1 to 189 µM)	16 to 64 (≈ 47.1 to 189 µM)	16 to 64 (≈ 47.1 to 189 µM)	16 to 64 (≈ 47.1 to 189 µM)	2 to 16 (≈ 5.89 to 47.1 µM)	–
CC(C)(O)[C@H](NC(=O)c1ccc(C#Cc2ccccc2)cc1)C(=O)NO [Example 133-14]	A (MIC's of 2.0 μg/mL or less = A)	< 2	2 to 16 (≈ 5.68 to 45.4 µM)	< 2	< 2	16 to 64 (≈ 45.4 to 182 µM)	< 2	< 2	–
CC(C)(O)[C@H](NC(=O)c1ccc(C#Cc2ccncc2)cc1)C(=O)NO [Example 133-15]	A (MIC's of 2.0 μg/mL or less = A)	< 2	2 to 16 (≈ 5.66 to 45.3 µM)	2 to 16 (≈ 5.66 to 45.3 µM)	2 to 16 (≈ 5.66 to 45.3 µM)	16 to 64 (≈ 45.3 to 181 µM)	2 to 16 (≈ 5.66 to 45.3 µM)	< 2	–
CC(C)(N)[C@H](NC(=O)c1ccc(C#CC2CC2c2ccccc2)cc1)C(=O)NO (stereo partly drawn) [Example 134-1, N—((S)-2-Amino-1-hydroxycarbamoyl-2-methyl-propyl)-4-(2-phenyl-cyclopropylethynyl)-benzamide]	A (MIC's of 2.0 μg/mL or less = A)	< 2	2 to 16 (≈ 5.11 to 40.9 µM)	2 to 16 (≈ 5.11 to 40.9 µM)	2 to 16 (≈ 5.11 to 40.9 µM)	16 to 64 (≈ 40.9 to 163 µM)	< 2	< 2	–
C[C@@H](N)[C@H](NC(=O)c1ccc(C#CC2CC2c2ccccc2)cc1)C(=O)NO (stereo partly drawn) [Example 134-2]	A (MIC's of 2.0 μg/mL or less = A)	< 2	2 to 16 (≈ 5.3 to 42.4 µM)	2 to 16 (≈ 5.3 to 42.4 µM)	16 to 64 (≈ 42.4 to 170 µM)	16 to 64 (≈ 42.4 to 170 µM)	2 to 16 (≈ 5.3 to 42.4 µM)	2 to 16 (≈ 5.3 to 42.4 µM)	–
NC[C@H](NC(=O)C#Cc1ccc(C#CCN2CCOCC2)cc1)C(=O)NO [Example 137-10]	C (MIC's of greater than 16.0 μg/mL to 64.0 μg/mL = C)	16 to 64 (≈ 43.2 to 173 µM)	> 64	> 64	> 64	> 64	> 64	> 64	–
NC[C@H](NC(=O)c1ccc(C#Cc2ccc(CNC(=O)CCC(=O)O)cc2)cc1)C(=O)NO [Example 137-11]	B (MIC's of greater than 2.0 μg/mL to 16.0 μg/mL = B)	2 to 16 (≈ 4.42 to 35.4 µM)	16 to 64 (≈ 35.4 to 141 µM)	> 64	> 64	> 64	> 64	16 to 64 (≈ 35.4 to 141 µM)	–
C[C@@H](O)[C@H](NC(=O)c1ccc(/C=C/C#Cc2cccc(F)c2)cc1)C(=O)NO [Example 137-14]	A (MIC's of 2.0 μg/mL or less = A)	< 2	2 to 16 (≈ 5.23 to 41.8 µM)	< 2	16 to 64 (≈ 41.8 to 167 µM)	16 to 64 (≈ 41.8 to 167 µM)	2 to 16 (≈ 5.23 to 41.8 µM)	< 2	–
C[C@@H](N)[C@H](NC(=O)c1ccc(C#Cc2ccc(CNCC(F)(F)F)cc2)cc1)C(=O)NO [Example 137-16]	A (MIC's of 2.0 μg/mL or less = A)	< 2	2 to 16 (≈ 4.46 to 35.7 µM)	< 2	2 to 16 (≈ 4.46 to 35.7 µM)	16 to 64 (≈ 35.7 to 143 µM)	2 to 16 (≈ 4.46 to 35.7 µM)	< 2	–
C[C@@H](N)[C@H](NC(=O)c1ccc(C#CC(O)c2ccc(CN3CCOCC3)cc2)cc1)C(=O)NO (stereo partly drawn) [Example 137-17]	A (MIC's of 2.0 μg/mL or less = A)	2 to 16 (≈ 4.29 to 34.3 µM)	16 to 64 (≈ 34.3 to 137 µM)	16 to 64 (≈ 34.3 to 137 µM)	16 to 64 (≈ 34.3 to 137 µM)	16 to 64 (≈ 34.3 to 137 µM)	16 to 64 (≈ 34.3 to 137 µM)	16 to 64 (≈ 34.3 to 137 µM)	–
C[C@@H](N)[C@H](NC(=O)c1ccc(C#CC(O)c2ccc(CO)cc2)cc1)C(=O)NO (stereo partly drawn) [Example 137-18]	B (MIC's of greater than 2.0 μg/mL to 16.0 μg/mL = B)	2 to 16 (≈ 5.03 to 40.3 µM)	16 to 64 (≈ 40.3 to 161 µM)	16 to 64 (≈ 40.3 to 161 µM)	16 to 64 (≈ 40.3 to 161 µM)	16 to 64 (≈ 40.3 to 161 µM)	16 to 64 (≈ 40.3 to 161 µM)	16 to 64 (≈ 40.3 to 161 µM)	–
